Legend:
Male Sprague-Dawley rats [1] = test: Serum uric acid concentration in oxonic acid-induced hyperuricemia rat model; format: in vivo
Description: (§1) Male Sprague-Dawley rats were housed in standard conditions and fed normal diets. Hyperuricemia was induced with an uricase inhibitor, oxonic acid (OA; 750 mg/kg/day), by gavage, with control rats receiving vehicle. Allopurinol (AP) was used to block hyperuricemia by placing AP in the drinking water (150 mg/L). Rats were divided into four groups: (1) Control, (2) AP only, (3) OA only, and (4) OA+AP. Systolic blood pressure was measured using a tail-cuff sphygmomanometer. The amount of drinking water consumed and changes in body weight were noted. Rats were sacrificed at one and seven days. Serum was analyzed for uric acid concentration and nitrites/nitrates (NOx) by chemiluminescence method. (Prabhakar S S: Inhibition of mesangial iNOS by reduced extracellular pH is associated with uncoupling of NADPH oxidation. Kidney Int 61:2015-2024, 2002). Statistical analysis between subgroups was performed using ANOVA.

Male Sprague-Dawley rats [2] = test: Serum nitrites/nitrates (NOx) by chemiluminescence method in hyperuricemic rats; format: in vivo, rat
Description: as §1

Male Sprague-Dawley rats [3] = test: Systolic blood pressure by tail-cuff sphygmomanometer in hyperuricemic rats; format: in vivo, rat; settings: 7 days, p=NS

| Structure (SMILES) | serum uric acid (Male Sprague-Dawley rats [1]; OA+AP group (AP 150 mg/L in drinking water), 7 days) | serum uric acid (Male Sprague-Dawley rats [1]; OA+AP group (AP 150 mg/L in drinking water), day 1) | change in serum UA concentration (Male Sprague-Dawley rats [1]; rats treated with AP alone) | serum nitrites and nitrates (NOx) (Male Sprague-Dawley rats [2]; OA+AP group, 1 day) | serum nitrites and nitrates (NOx) (Male Sprague-Dawley rats [2]; OA+AP group, 7 days) | change in serum NOx concentration (Male Sprague-Dawley rats [2]; rats treated with AP alone) | serum uric acid (Male Sprague-Dawley rats [1]; OA only group, 750 mg/kg/day by gavage, 1 day) | serum uric acid (Male Sprague-Dawley rats [1]; OA only group, 750 mg/kg/day by gavage, 7 days) | serum nitrites and nitrates (NOx) (Male Sprague-Dawley rats [2]; OA only group, 1 day) | serum nitrites and nitrates (NOx) (Male Sprague-Dawley rats [2]; OA only group, 7 days) | reduction of serum nitrites and nitrates (NOx) vs. Control (Male Sprague-Dawley rats [2]; hyperuricemic (OA) rats, at both 1 day and 7 days) | systolic blood pressure (Male Sprague-Dawley rats [3]) |
| --- | --- | --- | --- | --- | --- | --- | --- | --- | --- | --- | --- | --- |
| Oc1ncnc2[nH]ncc12 [AP, Allopurinol] | 0.3 ± 0.2 mg/dL | 1.52 ± 0.3 mg/dL | did not show a significant change | 17.4 ± 0.8 µmol/L | 25.0 ± 0.8 µmol/L | did not show a significant change |  |  |  |  |  |  |
| O=C(O)c1nc(=O)[nH]c(=O)[nH]1 [OA, oxonic acid] |  |  |  |  |  |  | 1.7 ± 0.7 mg/dL | 1.8 ± 0.4 mg/dL | 15.6 ± 0.4 µmol/L | 14.6 ± 1.1 µmol/L | 40-50% | 178±18 mm Hg |

Reference: patent publication US8557831B2, “Compositions and methods for treatment and prevention of insulin resistance” (University of Florida Research Foundation, Inc., priority 2004, dated 2013)
